“And” between values parts separate entries of the source, which are not always exact repeats. Equal entries are not always repeated.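 Compound exposure: 48 hours, 5 concentrations, 96-well plates. The concentration for 50% growth inhibition is given as GI50. Definition used: TGI = concentration required for complete inhibition of growth.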
Experiments:
Assay in all cases: DTP human tumour cell line panel, 48 h
[1] = test system: U251 CNS
[2] = test system: OVCAR-3 ovarian
[3] = test system: K-562 leukemia
[4] = test system: SK-MEL-2 melanoma
[5] = test system: NCI-H226 lung
[6] = test system: NCI-H23 lung
[7] = test system: HCT-116 colon
[8] = test system: SNB-19 CNS
[9] = test system: SN12C renal
[10] = test system: NCI-H522 lung

SMILES	GI50 [1]	TGI [1]	GI50 [2] [µM]	TGI [2]	GI50 [3] [µM]	TGI [3]	GI50 [4] [µM]	TGI [4] [µM]	GI50 [5] [µM]	TGI [5]	GI50 [6] [µM]	TGI [6]	GI50 [7] [µM]	TGI [7]	GI50 [8]	TGI [8]	GI50 [9] [µM]	TGI [9] [µM]	GI50 [10] [µM]	TGI [10]
Cn1c(=O)c(Oc2ccc(F)cc2F)cc2cnc(NC3CCS(=O)(=O)CC3)nc21	> 25 µM	> 25 µM	> 25	> 25 µM	> 25	> 25 µM	> 25	> 25	> 25	> 25 µM	> 25	> 25 µM	> 25	> 25 µM	> 25 µM	> 25 µM	> 25	> 25	> 14.3	> 25 µM
CN1C/C=C/CCOc2cccc(c2)-c2ccnc(n2)Nc2cccc(c2)C1	0.0421 µM	1.07 µM	0.0336	1.23 µM	0.0989	> 20.8 µM	0.0374	0.125	0.0347	0.442 µM	0.0577	0.289 µM	0.0277	1.08 µM	0.0574 µM	4.4 µM	0.0442	2.73	0.0522	0.233 µM
CC(=O)N1N=C2/C(=C/c3ccc(Cl)cc3)CC(C)CC2C1c1ccc(Cl)cc1 (stereo not drawn)	25.1 µM	86.8 µM	20	53.9 µM	13.8	65.8 µM	17.4	36.7	22	70.2 µM	25.2	> 100 µM	12.6	25.2 µM	23.7 µM	> 100 µM	19.9	40.4	17.1	56.8 µM
CN(C)c1ccc(/C=C/C2=[N+](C)c3ccccc3C2(C)C)cc1	0.353 µM	12.6 µM	0.301	12.3 µM	0.512	> 100 µM	1.61	16.8	1.57	26.1 µM	0.286	11.9 µM	0.44	20.3 µM	0.691 µM	18.4 µM	0.354	13.4	0.587	10.1 µM
Cn1cc(C2=C(c3cn(C)c4ccccc34)C(=O)NC2=O)c2ccccc21	1.26 µM	> 25 µM	0.646	> 6.67 µM	0.235	> 25 µM	0.894	> 14	9.19	> 25 µM	2.3	> 25 µM	1.17	> 25 µM	11.5 µM	> 25 µM	3.47	> 25	0.433	2.52 µM
Cn1c(/C=C/[N+](=O)[O-])cc2ccccc21	1.73 µM	3.75 µM	1.66	3.49 µM	2.9	> 100 µM	15.3	68.3	4.23	21 µM	2.73	17.1 µM	1.04	2.45 µM	11.1 µM	28.8 µM	13.1	> 100	2.22	7.43 µM
CCCCCCCCC(=O)OCC(CS[As](C)C)OC(=O)CCCCCCCC (stereo not drawn)	2.45 µM	13 µM	0.191	0.583 µM	0.342	12.9 µM	13.2	58.9	5.81	25.5 µM	0.593	1.5 µM	0.373	11.3 µM	11.5 µM	42.9 µM	2.08	12.6	1.11	
N#C[Se]CCCNS(=O)(=O)C1CC2C=CC1C2 (stereo not drawn)	1.08 µM	3.36 µM	1.47	3.1 µM	1.78	> 41.6 µM	2	6.15	0.267	0.674 µM	1.16	4.63 µM	0.276	0.827 µM	1.05 µM	2.91 µM	0.494	1.44	1.78	4.2 µM
O=C(c1ccco1)c1c(C(F)(F)F)n([O-])c2ccc(Cl)cc2[n+]1=O	0.487 µM	1.66 µM	1.11	3.92 µM	0.116	5.1 µM	1.76	9.78	1.43	3.24 µM	0.82	2.55 µM	0.0595	2.84 µM	1.58 µM	5.67 µM	1.35	3.13	1.4	
CC(=O)Oc1ccc(/C(=C(\C)c2ccc(Cl)cc2)c2ccc(OCCN3CCCCC3)cc2)cc1	1.66 µM	3.27 µM	1.65	3.25 µM	1.21	3.59 µM	1.85	3.56	6.39	22.9 µM	1.82	4.43 µM	1.34	2.72 µM	2.26 µM	5.8 µM	1.69	3.52	1.71	3.49 µM
Cc1ccc(Cl)c(Nc2ccccc2C(=O)O)c1Cl	26 µM	82.4 µM	20.3	37.9 µM	33.2	> 100 µM	26.3	76	28	82.4 µM	21.6	51.4 µM	19.6	44.9 µM	35 µM	> 100 µM	30.7	> 100	28.3	87.2 µM
O=C(Nc1ccc(/C=C/c2ccc(NC(=O)c3cc(S(=O)(=O)O)c4cccnc4c3O)cc2S(=O)(=O)O)c(S(=O)(=O)O)c1)c1cc(S(=O)(=O)O)c2cccnc2c1O	3.32 µM	> 22.4 µM	> 56.9	> 72.2 µM	12	> 75.2 µM	> 53.8	> 69.7	6.29	47.5 µM	6.65	> 42 µM	4.54	> 43.3 µM	12.2 µM	> 100 µM	4.36	> 59.2	15.3	47 µM
COc1cc2c(cc1OC)C1Cc3cc(OC)c(OC)cc3C(C2)N1C		> 100 µM		> 100 µM		> 100 µM		> 100		> 75 µM		> 100 µM		> 75 µM		> 100 µM		> 100		> 100 µM
COC(=O)C(Cc1nc2ccccc2nc1C)/C(=N\NC(N)=O)C(=O)Nc1cccc([N+](=O)[O-])c1 (stereo not drawn)		> 100 µM		> 100 µM		> 100 µM		> 100		> 100 µM		> 100 µM		> 100 µM		> 100 µM		> 100		27.3 µM
CCCCCCCCCCCCOC1C(CNC(=O)C2OC3OC(C)(C)OC3C2NC(=O)Nc2ccc(CC(=O)NC(Cc3ccccc3)C(=O)O)cc2)OC2OC(C)(C)OC21 (stereo not drawn)	> 25 µM	> 25 µM	> 25	> 25 µM	> 25	> 25 µM	> 25	> 25	> 25	> 25 µM	> 25	> 25 µM	> 25	> 25 µM	> 25 µM	> 25 µM	> 25	> 25	> 25	> 25 µM
COc1ccc(-n2ccnc2-c2cc(OC)c(OC)c(OC)c2)cc1	3.98 µM	> 100 µM	1.58	5.03 µM	3.14	> 100 µM	7.27	> 100	24	> 100 µM	3.3	65 µM	3.9	> 100 µM	4.64 µM	> 100 µM	6.24	> 100	2.92	8.12 µM
COc1cc(C(=O)Nc2cc(OC)c3ccn(C)c3c2)cc2c1C[C@]1(C)CC[C@@H](O)C(C)(C)[C@H]1O2	0.0978 µM	15.3 µM	1.68	4.86 µM	0.597	> 100 µM	0.323	4.48	7.69	> 100 µM	2.32	18.4 µM	0.733	17 µM	2.7 µM	90.2 µM	3.93	> 100	1.44	7.4 µM
O=C(Nc1ccccc1)c1cc(S(=O)(=O)Nc2nc3ccccc3o2)c(SCc2ccccc2)cc1Cl	17.8 µM	35 µM	19.9	40 µM	20.5	68.7 µM	23.6	57.3	21.5	50.7 µM	21.2	44.9 µM	25.1	66.1 µM	37 µM	> 100 µM	20.3	46.2	25.2	65 µM
COc1ccc(/C=C/C(=O)c2ccc(OC)c(OC)c2)cc1O	3.59 µM	14.6 µM	2.56	6.31 µM	3.31	> 100 µM	14.9	32.9	11.1	25.4 µM	9.91	30.4 µM	3.35	12.8 µM	6.42 µM	20.8 µM	3.74	15.6	3.42	12.4 µM
COc1ccc(C(=O)C(c2ccc(OCc3ccccc3)cc2)c2ccc(OCc3ccccc3)cc2)cc1		> 100 µM		> 100 µM		> 100 µM		> 100		> 100 µM		> 100 µM		> 100 µM		> 100 µM		> 100		> 100 µM
COc1ccc(C2C(C)C(=O)C(C)C(c3ccc(OC)cc3)N2N=O)cc1 (stereo not drawn)	35 µM and 85.9 µM	750 µM and 428 µM	> 750	> 1000 µM	> 750	> 1000 µM		602	> 88.4	> 75 µM and 457 µM	> 750	> 750 µM and 713 µM		455 µM	> 71 µM and 73.1 µM	750 µM and > 873 µM	> 750	> 1000	> 750	> 750 µM
Cc1c(O)c2c(c(O)c1Br)C(=O)C=CC2=O		3.09 µM and 3.99 µM	0.241	1.9 µM and 0.788 µM	0.0599	0.66 µM and 0.334 µM	1.93	4.45	5.44	5.77 µM and 18.7 µM	1.48	2.09 µM and 3.28 µM	1.01	0.817 µM and 2.16 µM		3.74 µM		2.73	0.179	0.337 µM and 0.365 µM
CC1OC(OC2C(OC3CCC4(C)C(CCC5(C)C4CC=C4C6CC(C)(C)CCC6(C(=O)O)CCC45C)C3(C)CO)OCC(O)C2O)C(O)C(O)C1O (stereo not drawn)		50.3 µM		81.9 µM		44.7 µM		33.3		49.6 µM		33.1 µM		> 100 µM		32.3 µM		42		28.8 µM

Source: PubChem BioAssay (NCI)
